Assay results: US20060009465A1, “Treatment of sleep disorders using sleep target modulators” (priority 2002, published 2006)
Entries after “also recorded” stand apart in the source; their conditions may differ.

Test system: Male Wistar rats
Test: SCORE-2000 sleep-wake assay (EEG/EMG, locomotor activity, body temperature)
[1] = Example 2, 10 mg/kg IP at CT-18
[2] = Example 3, male Wistar rats, 30 mg/kg
[3] = Example 2, 3 mg/kg and 10 mg/kg IP at CT-5

SMILES: Cl.O=C(O)C1CN(CCCn2nc3ccccn3c2=O)CCN1c1cccc(Cl)c1 (centres unmarked) [HY-2724]
- increasing sleep and sleep consolidation (Example 4, male Wistar rats, 30 mg/kg): ineffective

SMILES: O=c1n(CCCN2CCN(c3cccc(Cl)c3)CC2)nc2ccccn12 [Trazodone]
- REM Sleep Inhibition [1]: without evidence
- adverse thermoregulatory events post-treatment [1]: no evidence
- disproportional motor inhibition / locomotor activity changes [1]: without evidence; also recorded: no evidence
- nonREM sleep time [1]: increased nonREM sleep time; also recorded: markedly and significantly increased
- rebound insomnia [1]: without evidence; also recorded: no evidence
- Body Temp (CV) Adverse Event [2]: Yes
- Disproportional Motor Inhibition [2]: None
- Initial Sleep Interference [2]: initially interferes with sleep; also recorded: significant initial sleep interference
- REM Sleep Inhibition [2]: inhibits REM sleep; also recorded: significant REM sleep inhibition
- rebound insomnia [2]: None

SMILES: Clc1cccc(N2CCNCC2)c1 [m-CPP, meta-chlorophenylpiperazine]
- interference with sleep, time post-treatment [3]: 2 to 3 h
- rebound hypersomnolence [3]: followed by a rebound hypersomnolence
- reduction in nonREM sleep time, lasting post-treatment [3]: 2 to 3 h
